The source of these data is PMC5216877, “Exploring conformational equilibria of a heterodimeric ABC transporter” (eLife, 2017).

Read-outs that look alike come from different tables or passages of the source. Where only a bound is given, the exact number is not on record here.

Assay [1] addresses T1, TM287/288 (Thermotoga maritima, UniProt Q9WYC3+Q9WYC4, C28S/C496S/C519S/C558S/C73S). Put plainly: Inhibition of ATPase activity of TM287/288 by vanadate and nucleotides. Format: biochemical. Particulars: for IC50: 500 µM ATP; for Ki: calculated from IC50 and Km. The protocol:
Nucleotide binding and hydrolysis follow a complex mechanism in heterodimeric ABC exporters, due to the existence of a degenerate and a consensus site in the NBDs. […] Using the relation IC50=Ki(1+[S]/Km), Ki values for the respective nucleotides were determined (Table 2). […] It is well established that ATPγS is slowly hydrolyzed by ATPases, as for example the F1Fo-ATPase ([Turina and Capaldi, 1994]). […] It is reasonable to assume that TM287/288 is as well capable of slow ATPγS hydrolysis. In addition, we tested whether TM287/288 hydrolyzes AMP-PNP. In contrast to ATPγS, hydrolysis of AMP-PNP releases Pi, which can be detected by the molybdate/malachite green method.
(§1) in which f corresponds to the ATPase activity at the respective inhibitor concentration divided by the ATPase activity in the absence of inhibitor normalized to 100%, y0 corresponds to the residual activity at infinite inhibitor concentration, a corresponds to the maximal degree of inhibition (a+y0=100%) and x corresponds to the inhibitor concentration.
(§2) Ki values were calculated according to the formula Ki=IC50/(1+[S]/Km)
(§3) IC50 and Km values were obtained from data fitting as outlined above.
(§4) Standard errors for the Ki values were calculated by error propagation: σKi = (Km/Km+[S])^2 σIC502+ ([S]IC50/(Km+[S])^2)^2 σKm2
(§5) in which the σIC50 and σKm are standard errors obtained from data fitting in SigmaPlot and σKi is the standard error for Ki .

Assay [2] deals with TM287/288. The assay can be described thus: DEER two-Gaussian fit of IF/OF populations, wildtype TM287/288. Set-up: species or system Thermotoga maritima. Particulars: estimated errors 10%. As to the method:
All nucleotides and nucleotide analogs used in this study were added at saturating conditions well above their Ki values (Table 2). […] Therefore, the IF/OF fractions detected in the sample reflect the average life time that the nucleotide-bound transporter spends in either conformation. To rank the nucleotides in terms of their ability to support the transition to the OF conformation, we used three representative pairs in the wildtype transporter and the E-to-Q mutant: one in the extracellular region (50^TM287/271^TM287), one in the intracellular region (131^TM288/248^TM288) of the TMDs, and one in the NBDs (460^TM287/363^TM288) for which the distance peaks corresponding to the two states were distinguishable. A two-Gaussian fit of the DEER traces was performed to obtain the area of the corresponding IF and OF distance peaks (Figure 5—source data 1). The rank of nucleotides with respect to increasing fractions of the OF populations (Figure 5A) was: ADP-Mg ≈ AMP-PNP-Mg < ATP-EDTA < ATPγS-Mg < ATP-Mg < ATP-Vi-Mg. The order is similar for the wildtype and E-to-Q mutant transporter. However, the OF state is in general more populated in the E-to-Q mutant, which is best explained by an alteration of the energy profile caused by the mutation. This notion is best appreciated for ATP-EDTA and ATP-Mg, which could trigger an almost complete switch in the molecular ensemble of the E-to-Q mutant (Figure 5B).
The labeling efficiency of the double cysteine mutants of the transporters solubilized in detergent was measured at 25°C using an X-band Miniscope 400 EPR spectrometer (Magnettech by Freiberg Instrument). Samples were loaded into glass capillaries with the inner diameter of 0.9 mm and spectra were measured with 14 mT field sweep, 0.15 mT modulation amplitude, 2.5 mW microwave power. The calculated spin labeling efficiencies of the twelve mutants ranged between 70–90% (the second integral of the EPR spectra was calculated with the software available at spintoolbox.com). The high degree of labeling is correlated with the 0.3–0.4 modulation depths of all Q-band DEER traces presented. For DEER measurements, 10% v/v D8- glycerol was added prior to snap freezing. The range of final protein concentrations was 12 to 41 µM. 40 µL of sample were loaded in quartz tubes with 3 mm outer diameter. If not stated differently, samples were incubated at 25°C for 10 min (TM287/288 and MsbA) or 15 min (BmrCD) and snap frozen in liquid nitrogen. To study the effect of high physiological temperatures on the frozen dynamics of the transporter, samples were loaded in the quartz tubes, incubated for 3 min at 80°C on a heat block and snap frozen in a mixture of isopentane and liquid nitrogen to minimize the freezing time. […] The nucleotide analogs AMP-PNP-Mg and ATPγS-Mg (2.5 mM) were also prepared in the presence of 2.5 mM MgCl2. In case of ADP-Mg, 2.5 mM ADP and 2.5 mM MgCl2 were added.
Double electron-electron resonance (DEER) measurements were performed at 50 K on a Bruker ELEXSYS E580Q-AWG (arbitrary wave generator) dedicated pulse Q-band spectrometer equipped with a 150 W TWT amplifier. A 4-pulse DEER sequence with rectangular, non-selective observer and pump pulses of 14 or 16 ns length (depending on the available B1 at the sample) with 100 MHz frequency separation was used ([Polyhach et al., 2012]). Due to the coherent nature of the AWG generated pulses, a four-step phase cycling (0 – π/2 - π – 3/2π) of the pump π pulse was performed to remove unwanted effects of running echoes from the DEER trace. The evaluation of the DEER data was performed using DeerAnalysis2015 ([Jeschke et al., 2006]). The background of the primary DEER traces was corrected using stretched exponential functions with homogeneous dimensions of 1.5 to 3 for different samples. A model-free Tikhonov regularization was used to extract distance distributions from the background corrected form factors. […]

The next assay concerns ABCB1. Further details: method as in Siarheyeva et al., 2010. The note with it: ref Siarheyeva et al., 2010; cited from earlier work.
A further assay has as its target T2, BmrCD (Bacillus subtilis, UniProt O07549+O07550, C154A/C256A/C351A).
T2 construct: made in house; host or cells: E. coli MC1061
The assay can be described thus: Inhibition of ATPase activity of BmrCD by nucleotide analogs. It counts as biochemical. The protocol: as §1, §2, §3, §4, §5

Assay [3] addresses T1, TM287/288. The assay can be described thus: ATPase activity of detergent-purified wildtype TM287/288 (molybdate/malachite green phosphate detection). It counts as biochemical.
For assay [4], the system named is TM287/288. Put plainly: Hoechst 33342 stimulated ATPase activity of TM287/288 reconstituted into proteoliposomes. Format: biochemical, Thermotoga maritima. The note with it: 50, 100 and 150 µM Hoechst 33342, 50°C, wildtype and spin-labeled mutants, maximal at 50 or 100 µM, bell-shaped. The protocol:
To carry out DEER measurements in a lipidic environment (pair 131^TM288/248^TM288) as well as for the investigation of drug-stimulated ATPase activity of all pairs, spin-labeled TM287/288 was reconstituted into proteoliposomes consisting of E. coli polar lipids and egg phosphatidylcholine mixed at a ratio of 3:1 in 50 mM K-HEPES pH 7.0 as described elsewhere ([Hürlimann et al., 2016]; [Geertsma et al., 2008]). […] Reconstituted TM287/288_E517Q^TM288 was used for background subtraction.

The mark [5] stands for this setting: TM287/288, 50°C, read-out: IC50.
The mark [6] stands for this setting: spin-labeled pair 50^TM287-271^TM287 WT.
[7] abbreviates: spin-labeled pair 131^TM288-248^TM288 WT.
[8] abbreviates: spin-labeled pair 460^TM287-363^TM288 WT.
The mark [9] stands for this setting: wildtype TM287/288, ATP-Mg + 2.5 mM EDTA, 50°C, detergent.
Setting [10] is: wildtype TM287/288, ATP-Mg + 1 mM vanadate, 50°C, detergent.

T2 sequence (O07550 whole entry): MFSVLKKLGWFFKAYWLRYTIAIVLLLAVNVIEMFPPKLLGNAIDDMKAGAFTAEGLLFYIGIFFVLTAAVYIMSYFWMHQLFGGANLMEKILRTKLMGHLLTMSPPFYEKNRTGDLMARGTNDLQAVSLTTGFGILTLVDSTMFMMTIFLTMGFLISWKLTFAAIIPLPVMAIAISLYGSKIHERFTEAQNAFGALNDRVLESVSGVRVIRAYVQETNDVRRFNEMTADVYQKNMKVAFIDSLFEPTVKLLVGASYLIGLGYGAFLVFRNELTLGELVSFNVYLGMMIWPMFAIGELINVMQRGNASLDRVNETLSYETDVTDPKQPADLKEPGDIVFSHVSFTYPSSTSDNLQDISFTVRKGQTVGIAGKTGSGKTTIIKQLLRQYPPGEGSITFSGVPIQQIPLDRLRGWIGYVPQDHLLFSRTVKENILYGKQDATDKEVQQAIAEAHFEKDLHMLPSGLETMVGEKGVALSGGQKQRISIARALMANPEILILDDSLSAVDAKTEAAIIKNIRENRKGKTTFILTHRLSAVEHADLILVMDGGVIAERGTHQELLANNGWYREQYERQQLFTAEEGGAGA
T2 sequence (O07549 whole entry C154A/C256A/C351A): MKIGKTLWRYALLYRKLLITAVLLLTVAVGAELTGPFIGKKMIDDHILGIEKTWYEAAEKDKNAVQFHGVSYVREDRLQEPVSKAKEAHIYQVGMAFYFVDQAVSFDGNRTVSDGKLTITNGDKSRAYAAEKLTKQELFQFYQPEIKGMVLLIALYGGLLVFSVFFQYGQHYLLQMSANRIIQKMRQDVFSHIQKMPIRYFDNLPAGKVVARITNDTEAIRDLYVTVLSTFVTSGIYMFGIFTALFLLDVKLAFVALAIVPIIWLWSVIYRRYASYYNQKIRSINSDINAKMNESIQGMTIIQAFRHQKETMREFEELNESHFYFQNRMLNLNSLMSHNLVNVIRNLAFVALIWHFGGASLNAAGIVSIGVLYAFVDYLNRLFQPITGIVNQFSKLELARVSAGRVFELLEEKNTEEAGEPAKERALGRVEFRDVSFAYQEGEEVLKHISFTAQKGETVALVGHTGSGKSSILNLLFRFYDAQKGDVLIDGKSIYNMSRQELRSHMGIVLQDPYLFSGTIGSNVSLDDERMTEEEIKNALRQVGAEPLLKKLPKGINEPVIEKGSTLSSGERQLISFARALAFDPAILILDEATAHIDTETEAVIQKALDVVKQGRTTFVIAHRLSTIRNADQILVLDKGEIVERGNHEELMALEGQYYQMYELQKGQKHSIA

For the molecule `Nc1ncnc2c1ncn2[C@@H]1O[C@H](COP(=O)(O)OP(=O)(O)O)[C@@H](O)[C@H]1O` [ADP], the IC50 on TM287/288 [1] (TM287/288, 25°C, read-out: IC50) is 505 ± 21 µM; at TM287/288 [1] (setting [5]), 681 ± 160 µM. The Ki is 3.28 ± 0.44 µM at TM287/288 [1] (TM287/288, 25°C, read-out: Ki) and 10.4 ± 2.9 µM at TM287/288 [1] (TM287/288, 50°C, read-out: Ki). Also, the figures for the IF frac in the assay with TM287/288 [2] (setting [6]), in the assay with TM287/288 [2] (setting [7]) and in the assay on TM287/288 [2] (setting [8]) were 90.1%, 100% and 82%, respectively. Moreover, the figures for the OF frac with TM287/288 [2] (setting [6]), in the assay on TM287/288 [2] (setting [7]) and in the assay on TM287/288 [2] (setting [8]) were 9.9%, 0% and 18%, respectively.
As to `Nc1ncnc2c1ncn2[C@@H]1O[C@H](CO[P@](=O)(O)O[P@](=O)(O)O[P@@](=O)(O)S)[C@@H](O)[C@H]1O` [ATPγS], the IC50 against TM287/288 [1] (IC50, TM287/288, 25°C) was determined as 31.4 ± 2.8 µM; against TM287/288 [1] (IC50, TM287/288, 50°C), 2.86 ± 0.08 µM; against BmrCD it was 221 ± 24 µM. The inhibition constant Ki on TM287/288 [1] (Ki, TM287/288, 25°C) was 0.204 ± 0.032 µM; at TM287/288 [1] (Ki, TM287/288, 50°C), 0.0439 ± 0.0062 µM; at BmrCD it was 26.7 ± 3.3 µM. For the same molecule, the IF frac in the assay with TM287/288 [2] (setting [6]) is 45.2%; in the assay on TM287/288 [2] (setting [7]) it was 72.9%; in the assay with TM287/288 [2] (setting [8]), 63.7%. For the same molecule, the OF frac with TM287/288 [2] (setting [6]) was 54.8%; with TM287/288 [2] (setting [7]) it was 27.1%; with TM287/288 [2] (setting [8]) it was 36.3%. In the assay on ABCB1, the “rate of hydrolysis of ATPγS relative to that determined for ATP” value was 0.4%.
For the molecule `O=C(O)CN(CCN(CC(=O)O)CC(=O)O)CC(=O)O` [EDTA], the “ATPase activity in the presence of EDTA” value at TM287/288 [3] (2.5 mM EDTA added to chelate Mg2+, wildtype TM287/288) is reported as “did not observe any detectable ATPase activity”. Moreover, at TM287/288 [3] (setting [9]), the ATPase activity was <0.1 nmol Pi/min/mg protein; the “ATPase activity, % of wildtype” value is on record as <0.005%; the Turnover per transporter is <0.01 min⁻¹.
For `CCOc1ccc(-c2nc3ccc(-c4nc5ccc(N6CCN(C)CC6)cc5[nH]4)cc3[nH]2)cc1` [Hoechst 33342], the “stimulation of ATPase activity” value in the assay with TM287/288 [4] is “robust ATPase stimulation”.
In the case of `[Na+].[Na+].[Na+].[O]=[V]([O-])([O-])[O-]` [Vanadate, sodium orthovanadate], the “residual ATPase activity” value on TM287/288 [1] (1 mM vanadate, 50°C, TM287/288) stood at 8%. The concentration for half-maximal inhibition (IC50) at TM287/288 [1] (setting [5]) came to 4.9 ± 0.29 µM. Besides, the inhibition constant (Ki) at TM287/288 [1] (TM287/288, 50°C, read-out: Ki) is 0.0751 ± 0.0114 µM. In addition, at TM287/288 [1] (setting [10]), the ATPase activity was determined as 165 ± 20 nmol Pi/min/mg protein; the “ATPase activity, % of wildtype” value worked out at 7.71%; the Turnover per transporter turned out to be 21.9 min⁻¹. Also, the “turnover rate, ATP hydrolysis inhibited by vanadate” value on TM287/288 [1] (wildtype TM287/288, vanadate, 50°C) came out at 22 ATP min^−1.

What is called IC50 is the concentration needed to halve the response being measured. By Ki is commonly meant the equilibrium dissociation constant of an inhibitor or competing ligand from its target.
